The source of these data is patent publication US9247744B2, “Ternary pesticidal mixtures” (BASF SE, priority 2006, dated 2016).

The structures appear in SMILES notation.

Common to all, as to format: in vivo
Experiment [1] deals with vetch aphid (Megoura viciae). Put plainly: control of vetch aphid on broad bean leaf disks, 24-well microtiter plates. Conditions: sprayed on leaf disks, mortality and fecundity after 5 days. As to the method:
(§1) The analysis of synergism or antagonism between the mixtures or compositions was determined using Colby's equation.
For evaluating control of vetch aphid (Megoura viciae) through contact or systemic means the test unit consisted of 24-well-microtiter plates containing broad bean leaf disks.
The compounds or mixtures were formulated using a solution containing 75% water and 25% DMSO. Different concentrations of formulated compounds or mixtures were sprayed onto the leaf disks at 2.5 μl, using a custom built micro atomizer, at two replications.
(§2) For experimental mixtures in these tests identical volumes of both mixing partners at the desired concentrations respectively, were mixed together.
After application, the leaf disks were air-dried and 5-8 adult aphids placed on the leaf disks inside the microtiter plate wells. The aphids were then allowed to suck on the treated leaf disks and incubated at 23±1° C., 50±5% RH for 5 days. Aphid mortality and fecundity was then visually assessed.
In this test the compound 1-2, and N-(3′,4′-dichloro-5-fluorobiphenyl-2-yl)-3-difluoromethyl-1-methylpyrazole-4-carboxamide (compound 2.1) and 5-chloro-7-(4-methyl-piperidin-1-yl)-6-(2,4,6-trifluorophenyl)-[1,2,4]triazolo[1,5-a]pyrimidine (compound 2.2) were used.

Experiment [2] concerns green peach aphid (Myzus persicae). Put plainly: control of green peach aphid through systemic means, artificial diet under membrane. Conditions: pipetted into aphid diet, mortality and fecundity after 3 days. How it is done: as §1
For evaluating control of green peach aphid (Myzus persicae) through systemic means the test unit consisted of 96-well-microtiter plates containing liquid artificial diet under an artificial membrane.
The compounds or mixtures were formulated using a solution containing 75% water and 25% DMSO. Different concentrations of formulated compounds or mixtures were pipetted into the aphid diet, using a custom built pipetter, at two replications.
as §2
After application, 5-8 adult aphids were placed on the artificial membrane inside the microtiter plate wells. The aphids were then allowed to suck on the treated aphid diet and incubated at 23±1° C., 50±5% RH for 3 days. Aphid mortality and fecundity was then visually assessed.
In this test the compound 1-2, and orysastrobin, and 5-chloro-7-(4-methylpiperidin-1-yl)-6-(2,4,6-trifluorophenyl)-[1,2,4]triazolo[1,5-a]pyrimidine (compound 2.2), and N-[2-(1,1,2,3,3,3-hexafluoropropoxy)-phenyl]-3-difluoromethyl-1-methyl-1H-pyrazole-4-carboxamide (compound 3.1), were used.

Experiment [3] concerns tobacco budworm (Heliothis virescens). The experiment in a line: control of tobacco budworm, insect diet with eggs, 96-well microtiter plates. Conditions: sprayed on insect diet, egg and larval mortality after 5 days. How it is done:
as §1
For evaluating control of tobacco budworm (Heliothis virescens) the test unit consisted of 96-well-microtiter plates containing an insect diet and 15-25 H. virescens eggs. The compounds or mixtures were formulated using a solution containing 75% water and 25% DMSO. Different concentrations of formulated compounds or mixtures were sprayed onto the insect diet at 10 μl, using a custom built micro atomizer, at two replications.
as §2
After application, microtiter plates were incubated at 28±1° C., 80±5% RH for 5 days. Egg and larval mortality was then visually assessed.
In this test the compound I-2, and prochloraz, and pyraclostrobin, resp., were used.

Experiment [4] deals with boll weevil (Anthonomus grandis). The experiment in a line: control of boll weevil, insect diet with eggs, 24-well microtiter plates. The following applies: sprayed on insect diet, egg and larval mortality after 5 days. As to the method: as §1
For evaluating control of boll weevil (Anthonomus grandis) the test unit consisted of 24-well-microtiter plates containing an insect diet and 20-30 A. grandis eggs.
The compounds or mixtures were formulated using a solution containing 75% water and 25% DMSO. Different concentrations of formulated compounds or mixtures were sprayed onto the insect diet at 20 μl, using a custom built micro atomizer, at two replications.
as §2
After application, microtiter plates were incubated at 23±1° C., 50±5% RH for 5 days. Egg and larval mortality was then visually assessed.
In this test the compound 1-2, and prochloraz, pyraclostrobin, N-[2-(1,1,2,3,3,3-hexafluoropropoxy)-phenyl]-3-difluoromethyl-1-methyl-1H-pyrazole-4-carboxamide (compound 3.1), and N-(3′,4′,5′-trifluorobiphenyl-2-yl)-1-methyl-3-difluoromethyl-1H-pyrazole-4-carboxamide (compound 3.2), resp., were used.

Take `Cn1cc(C(=O)Nc2ccc(F)cc2-c2ccc(Cl)c(Cl)c2)c(C(F)F)n1` [compound 2.1, N-(3′,4′-dichloro-5-fluorobiphenyl-2-yl)-3-difluoromethyl-1-methylpyrazole-4-carboxamide]: the “Average Control %” value in experiment [1] (1000 ppm) was found to be 0%.

On to `COC(=O)N(OC)c1ccccc1COc1ccn(-c2ccc(Cl)cc2)n1` [pyraclostrobin, methyl N-{2-[1-(4-chlorophenyl)-1/pyrazol-3-yloxymethyl]phenyl}(N-methoxy)carbamate], for which the “Average Control %” value in experiment [2] (8 ppm), in experiment [3] (200 ppm) and in experiment [4] (40 ppm) was 0% each time.

On to `Cn1cc(C(=O)Nc2ccccc2-c2cc(F)c(F)c(F)c2)c(C(F)F)n1` [compound 3.2, N-(3′,4′,5′-trifluorobiphenyl-2-yl)-1-methyl-3-difluoromethyl-1H-pyrazole-4-carboxamide], for which the “Average Control %” value in experiment [4] (200 ppm) amounted to 0%.

Consider `CNC(=O)c1cc(C#N)cc(C)c1NC(=O)c1cc(Br)nn1-c1ncccc1Cl` [I-2], for which the “Average Control %” value is 0% in experiment [2] (0.5 ppm); 0% in experiment [1] (0.5 ppm); 0% in experiment [1] (2.5 ppm); 0% in experiment [3] (0.5 ppm); 37.5% in experiment [3] (2.5 ppm); 0% in experiment [4] (0.5 ppm).

As to `CNC(=O)/C(=N/OC)c1ccccc1CO/N=C(C)/C(=N/OC)C(/C)=N/OC` [orysastrobin, (2E)-2-(methoxyimino)-2-{2-[(3E,5E,6E)-5-(methoxyimino)-4,6-dimethyl-2,8-dioxa-3,7-diazanona-3,6-dien-1-yl]phenyl}-N-methylacetamide], the “Average Control %” value in experiment [2] (40 ppm) was found to be 0%.
